Results published in patent publication US10421761B2, “Compounds for kinase modulation, and indications therefor” (Plexxikon Inc., priority 2013, dated 2019).
Where two headings read alike, the source gives them in different places.

Key:
[1] = test system: A375 (BRAF V600E) cell line; assay: A375 P-ERK inhibition assay (AlphaScreen); type: cell-based, human; conditions: Homo sapiens, A-375; A375_P-ERK
Procedure: (§1) Phospho-ERK AlphaScreen® assay. To determine the effects of compound treatment upon phosphorylation of ERK1/2, cells were plated in a 96-well dish and treated with an 8-point titration of compound for one hour at 37° C. before lysis. To detect pERK, cell lysates were incubated with streptavidin-coated AlphaScreen® donor beads, anti-mouse IgG AlphaScreen® acceptor beads, a biotinylated anti-ERK1/2 rabbit antibody, and a mouse antibody that recognizes ERK1/2 only when it is phosphorylated on Thr202 and Tyr204. The biotinylated ERK1/2 antibody binds to both the streptavidin-coated AlphaScreen® donor beads and to ERK1/2 (regardless of its phosphorylation state), and the phospho-ERK1/2 antibody binds to the acceptor beads and to ERK1/2 that is phosphorylated at Thr202/Tyr204. An increase in ERK1/2 phosphorylation at Thr202/Tyr204 brings the donor and acceptor AlphaScreen® beads into close proximity, generating a signal that can be quantified on an EnVision reader (Perkin Elmer).

B9 (HRAS Q61L) cell line = assay: B9 P-ERK cell activation assay (AlphaScreen); type: cell-based, mouse; conditions: Mus musculus, P-ERK cell activation, B9, read-out: Cell activity (EC50 μM) B9_pERK
Procedure: (§2) B9 is a squamous cell carcinoma cell line expressing activated HRAS that was isolated from a DMBA/TPA-induced mouse model of skin carcinogenesis (Stoler, et al. The Journal of Cell Biology, 1993, 122(5), 1103-17). IPC-298 is a human melanoma cell line that expresses activated NRAS (Aubert, et al. International Journal of Cancer, 1993, 54(5), 784-92). To determine whether compounds induce phosphorylated ERK and MEK, cells are plated in a 96-well dish and treated with an 8-point titration of compound for one hour at 37° C. The media is then removed and the cells are incubated with lysis buffer containing protease and phosphatase inhibitors. Phosphorylated ERK and MEK in the resulting lysates is detected using AlphaScreen™ technology. To detect phosphorylated ERK, cell lysates are incubated with streptavidin-coated donor beads, anti-mouse IgG acceptor beads, a biotinylated anti-ERK1/2 rabbit antibody, and a mouse antibody that recognizes ERK1/2 only when it is phosphorylated on Thr202 and Tyr204. The biotinylated ERK1/2 antibody will bind to both the streptavidin-coated donor beads and to ERK1/2 (regardless of its phosphorylation state), and the phospho-ERK1/2 antibody will bind to the acceptor beads and to ERK1/2 that is phosphorylated at Thr202/Tyr204. Excitation of the beads with laser light at 680 nm produces singlet oxygen, which is rapidly quenched unless the beads are in close proximity. When ERK is phosphorylated, both antibodies can bind the same protein, bringing the donor and acceptor beads into close proximity, producing a signal that can be measured at 580 nm. MEK phosphorylation is detected using a similar approach, only with antibodies directed against total MEK1/2 and MEK1/2 that is phosphorylated at Ser217 and Ser221.
as §1

[2] = test system: IPC-298 (NRAS Q61L) cell line; assay: IPC-298 P-ERK cell activation assay (AlphaScreen); type: cell-based, human; conditions: Homo sapiens, P-ERK cell activation, IPC-298, read-out: Cell activity (EC50 μM) IPC-298_P-ERK
Procedure: as §2, §1

BRAF V600E = biological target: T1, BRAF V600E (Homo sapiens, UniProt P15056, V600E); assay: BRAF V600E biochemical kinase activity assay (AlphaScreen, biotin-MEK1 substrate); conditions: BRAF V600E biochemical inhibitory activity
T1 construct: purchased Upstate Biotechnology
Procedure: Compounds to be tested are diluted in dimethyl sulfoxide to a concentration of 0.1 mM. These are serially diluted 15 μL into 30 μL of dimethyl sulfoxide seven times in 96 well plates for a total of 8 dilution points, and for each dilution point 1 μL is added to a well of an assay plate. […] The reaction is started with addition of 10 μL of 200 μM ATP (i.e. final 100 μM ATP). After incubation of the kinase reaction for 45 minutes at room temperature, 5 μL/well of Stop Solution is added (25 mM Hepes pH 7.5, 100 mM EDTA, 0.01% BSA with donor beads (Streptavidin coated beads, Perkin Elmer), acceptor beads (Protein A coated, Perkin Elmer), and anti-phosphor MEK1/2 antibody (CellSignal), each at final concentration 10 μg/mL). The plates are incubated for 3 hours at room temperature and read on Envision reader (Perkin Elmer). Phosphorylation of Mek1 results in binding of the anti-phosphor-MEK1/2antibody and association of the donor and acceptor beads such that signal correlates with kinase activity. The signal versus compound concentration is used to determine the IC50.
The in vitro RAF kinase activities were determined by measuring phosphorylation of a biotinylated substrate peptide as described previously (Tsai, J. et al. Proc Natl Acad Sci USA 105, 3041-3046 (2008)). Compounds of formula (I), e.g., compound A, was also tested against a panel of 287 kinases at concentrations of 1 μM in duplicate. Kinases inhibited by over 50% were followed up by IC50 determination. The 287 kinases represent all major branches of the kinome phylogenetic tree. The inhibition screen of 287 kinases was carried out under contract as complementary panels at Invitrogen (Life Technologies, Wis., USA) SelectScreen™ profiling service, DiscoverX (CA, USA) KINOMEScan™ service, and Reaction Biology Corporation (PA, USA) Kinase HotSpot℠ service.

T1 sequence (P15056 whole entry V600E): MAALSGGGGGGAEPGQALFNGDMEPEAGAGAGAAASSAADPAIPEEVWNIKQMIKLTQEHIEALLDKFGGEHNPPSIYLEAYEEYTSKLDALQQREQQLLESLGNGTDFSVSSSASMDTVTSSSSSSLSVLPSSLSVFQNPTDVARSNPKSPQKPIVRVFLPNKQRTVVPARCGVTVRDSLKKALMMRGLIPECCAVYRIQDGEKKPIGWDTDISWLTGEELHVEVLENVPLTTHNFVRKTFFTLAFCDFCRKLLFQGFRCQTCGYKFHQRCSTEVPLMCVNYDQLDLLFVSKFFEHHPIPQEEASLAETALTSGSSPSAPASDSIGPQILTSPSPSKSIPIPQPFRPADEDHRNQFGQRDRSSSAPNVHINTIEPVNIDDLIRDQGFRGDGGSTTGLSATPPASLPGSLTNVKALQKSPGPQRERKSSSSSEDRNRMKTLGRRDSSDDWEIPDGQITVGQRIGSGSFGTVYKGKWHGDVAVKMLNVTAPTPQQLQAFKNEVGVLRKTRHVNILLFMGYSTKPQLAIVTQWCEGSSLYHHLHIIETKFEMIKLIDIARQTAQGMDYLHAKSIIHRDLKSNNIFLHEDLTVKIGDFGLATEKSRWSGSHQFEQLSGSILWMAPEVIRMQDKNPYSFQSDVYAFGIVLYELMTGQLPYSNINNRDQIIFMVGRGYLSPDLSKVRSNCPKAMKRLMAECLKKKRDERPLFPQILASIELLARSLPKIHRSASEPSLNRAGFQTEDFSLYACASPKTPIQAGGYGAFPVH

Compound	IC50 [1]	EC50 (B9 (HRAS Q61L) cell line; numeric bounds)	EC50 ([2]; numeric bounds)	IC50 (BRAF V600E)	EC50 (B9 (HRAS Q61L) cell line; class symbols)	EC50 ([2]; class symbols)
COC(=O)N[C@@H](C)CNc1nccc(-c2nn(C(C)C)cc2-c2cc(Cl)cc(NS(=O)(=O)N3CC[C@@H](F)C3)c2F)n1 [P-2161, methyl N-[(1S)-2-[[4-[4-[5-chloro-2-fluoro-3-[[(3R)-3-fluoropyrrolidin-1-yl]sulfonylamino]phenyl]-1-isopropyl-pyrazol-3-yl]pyrimidin-2-yl]amino]-1-methyl-ethyl]carbamate]	0.0001 to 1 µM	–	> 10 µM	0.0001 to 1 µM	0.0001 to 1 µM	–
CC(=O)Nc1ccc(NC(=O)c2c(F)ccc(NS(=O)(=O)N3CCCC3)c2F)cn1 [P-2036, N-(6-acetamido-3-pyridyl)-2,6-difluoro-3-(pyrrolidin-1-ylsulfonylamino)benzamide]	1 to 10 µM	> 10 µM	> 10 µM	1 to 10 µM	–	–
CCN(C)S(=O)(=O)Nc1ccc(F)c(C(=O)c2c[nH]c3ncnc(NC4CCC4)c23)c1F [P-2101, 4-(cyclobutylamino)-5-[3-[[ethyl(methyl)sulfamoyl]amino]-2,6-difluoro-benzoyl]-7H-pyrrolo[2,3-d]pyrimidine]	0.0001 to 1 µM	> 10 µM	> 10 µM	0.0001 to 1 µM	–	–
O=C(c1c(F)ccc(NS(=O)(=O)C2CCCCC2)c1F)c1c[nH]c2nccc(Cl)c12 [P-2014, N-[3-(4-chloro-1H-pyrrolo[2,3-b]pyridine-3-carbonyl)-2,4-difluoro-phenyl]cyclohexanesulfonamide]	0.0001 to 1 µM	> 10 µM	> 10 µM	0.0001 to 1 µM	–	–
COC(=O)N[C@@H](C)CNc1nccc(-c2nn(C(C)C)cc2-c2cc(Cl)cc(NS(=O)(=O)C3CCC3)c2F)n1 [P-2169, methyl N-[(1S)-2-[[4-[4-[5-chloro-3-(cyclobutylsulfonylamino)-2-fluoro-phenyl]-1-isopropyl-pyrazol-3-yl]pyrimidin-2-yl]amino]-1-methyl-ethyl]carbamate]	0.0001 to 1 µM	–	–	0.0001 to 1 µM	0.0001 to 1 µM	0.0001 to 1 µM
CCN(C)S(=O)(=O)Nc1cccc(C(=O)c2c[nH]c3ncnc(OC)c23)c1F [P-2092, 5-[3-[[ethyl(methyl)sulfamoyl]amino]-2-fluoro-benzoyl]-4-methoxy-7H-pyrrolo[2,3-d]pyrimidine]	0.0001 to 1 µM	> 10 µM	> 10 µM	0.0001 to 1 µM	–	–
Cc1cc2c(-c3sc(C(C)(C)C)nc3-c3cccc(NS(=O)(=O)N4CCCC4)c3F)ncnc2[nH]1 [P-2123, N-[3-[2-tert-butyl-5-(6-methyl-7H-pyrrolo[2,3-d]pyrimidin-4-yl)thiazol-4-yl]-2-fluoro-phenyl]pyrrolidine-1-sulfonamide]	0.0001 to 1 µM	> 10 µM	> 10 µM	0.0001 to 1 µM	–	–
O=C(c1cccc(NS(=O)(=O)N2CCCC2)c1F)c1c[nH]c2ncnc(NC[C@@H]3CCCO3)c12 [P-2082, N-[2-fluoro-3-[4-[[(2S)-tetrahydrofuran-2-yl]methylamino]-7H-pyrrolo[2,3-d]pyrimidine-5-carbonyl]phenyl]pyrrolidine-1-sulfonamide]	0.0001 to 1 µM	> 10 µM	> 10 µM	0.0001 to 1 µM	–	–
CCN(C)S(=O)(=O)Nc1cccc(C(=O)c2c[nH]c3ncnc(NC4CCC4)c23)c1F [P-2072, 4-(cyclobutylamino)-5-[3-[[ethyl(methyl)sulfamoyl]amino]-2-fluoro-benzoyl]-7H-pyrrolo[2,3-d]pyrimidine]	0.0001 to 1 µM	> 10 µM	> 10 µM	0.0001 to 1 µM	–	–
Cc1cc(NS(=O)(=O)N2CCCC2)c(F)c(C(=O)c2c[nH]c3ncc(-c4cnc(C5CC5)nc4)cc23)c1 [P-2183, N-[3-[5-(2-cyclopropylpyrimidin-5-yl)-1H-pyrrolo[2,3-b]pyridine-3-carbonyl]-2-fluoro-5-methyl-phenyl]pyrrolidine-1-sulfonamide]	–	> 10 µM	> 10 µM	0.0001 to 1 µM	–	–

Now from value to compound:

IC50 [1]	EC50 (B9 (HRAS Q61L) cell line; numeric bounds)	EC50 ([2]; numeric bounds)	IC50 (BRAF V600E)	EC50 (B9 (HRAS Q61L) cell line; class symbols)	EC50 ([2]; class symbols)	Compound
1 to 10 µM	> 10 µM	> 10 µM	0.0001 to 1 µM	–	–	COc1ccnc2[nH]cc(C(=O)c3c(F)ccc(NS(=O)(=O)C4CCC4)c3F)c12 [Compound P-2010, N-[2,4-difluoro-3-(4-methoxy-1H-pyrrolo[2,3-b]pyridine-3-carbonyl)phenyl]cyclobutanesulfonamide]
0.0001 to 1 µM	> 10 µM	> 10 µM	0.0001 to 1 µM	–	–	O=C(c1cccc(NS(=O)(=O)N2CCCC2)c1F)c1c[nH]c2ncnc(NC3CCOCC3)c12 [P-2083, N-[2-fluoro-3-[4-(tetrahydropyran-4-ylamino)-7H-pyrrolo[2,3-d]pyrimidine-5-carbonyl]phenyl]pyrrolidine-1-sulfonamide]
0.0001 to 1 µM	> 10 µM	> 10 µM	0.0001 to 1 µM	–	–	O=C(c1cccc(NS(=O)(=O)N2CCCC2)c1F)c1c[nH]c2ncnc(NCCN3CCOCC3)c12 [P-2110, N-[2-fluoro-3-[4-(2-morpholinoethylamino)-7H-pyrrolo[2,3-d]pyrimidine-5-carbonyl]phenyl]pyrrolidine-1-sulfonamide]
0.0001 to 1 µM	> 10 µM	> 10 µM	0.0001 to 1 µM	–	–	CCC(C)S(=O)(=O)Nc1ccc(F)c(C(=O)c2c[nH]c3nccc(C#N)c23)c1F (stereo not shown) [P-2020, N-[3-(4-cyano-1H-pyrrolo[2,3-b]pyridine-3-carbonyl)-2,4-difluoro-phenyl]butane-2-sulfonamide]
0.0001 to 1 µM	> 10 µM	> 10 µM	0.0001 to 1 µM	–	–	CCC(C)S(=O)(=O)Nc1ccc(F)c(C(=O)c2c[nH]c3nccc(Cl)c23)c1F (stereo not shown) [P-2016, N-[3-(4-chloro-1H-pyrrolo[2,3-b]pyridine-3-carbonyl)-2,4-difluoro-phenyl]butane-2-sulfonamide]
0.0001 to 1 µM	> 10 µM	> 10 µM	0.0001 to 1 µM	–	–	CCN(C)S(=O)(=O)Nc1cccc(C(=O)c2c[nH]c3ncnc(NC(C)C)c23)c1F [P-2067, 5-[3-[[ethyl(methyl)sulfamoyl]amino]-2-fluoro-benzoyl]-4-(isopropylamino)-7H-pyrrolo[2,3-d]pyrimidine]
1 to 10 µM	> 10 µM	> 10 µM	0.0001 to 1 µM	–	–	O=C(c1cc(C(F)(F)F)cc(NS(=O)(=O)N2CC[C@@H](F)C2)c1F)c1c[nH]c2ncc(-c3cnc(C4CC4)nc3)cc12 [P-2178, (3R)—N-[3-[5-(2-cyclopropylpyrimidin-5-yl)-1H-pyrrolo[2,3-b]pyridine-3-carbonyl]-2-fluoro-5-(trifluoromethyl)phenyl]-3-fluoro-pyrrolidine-1-sulfonamide]
